Numbering of substitutions follows the chain as printed. Calls of active or inactive are those of the source. No cut-off for these calls is given here.
How the values were obtained:
[1] = molecular target: T1, Kinesin-like protein KIF11 (Homo sapiens, UniProt P52732); assay: Inhibition of human wild type Eg5 using varying ATP levels in presence of saturating levels of microtubule by Lineweaver-Burke plot
T1 sequence (P52732 whole entry): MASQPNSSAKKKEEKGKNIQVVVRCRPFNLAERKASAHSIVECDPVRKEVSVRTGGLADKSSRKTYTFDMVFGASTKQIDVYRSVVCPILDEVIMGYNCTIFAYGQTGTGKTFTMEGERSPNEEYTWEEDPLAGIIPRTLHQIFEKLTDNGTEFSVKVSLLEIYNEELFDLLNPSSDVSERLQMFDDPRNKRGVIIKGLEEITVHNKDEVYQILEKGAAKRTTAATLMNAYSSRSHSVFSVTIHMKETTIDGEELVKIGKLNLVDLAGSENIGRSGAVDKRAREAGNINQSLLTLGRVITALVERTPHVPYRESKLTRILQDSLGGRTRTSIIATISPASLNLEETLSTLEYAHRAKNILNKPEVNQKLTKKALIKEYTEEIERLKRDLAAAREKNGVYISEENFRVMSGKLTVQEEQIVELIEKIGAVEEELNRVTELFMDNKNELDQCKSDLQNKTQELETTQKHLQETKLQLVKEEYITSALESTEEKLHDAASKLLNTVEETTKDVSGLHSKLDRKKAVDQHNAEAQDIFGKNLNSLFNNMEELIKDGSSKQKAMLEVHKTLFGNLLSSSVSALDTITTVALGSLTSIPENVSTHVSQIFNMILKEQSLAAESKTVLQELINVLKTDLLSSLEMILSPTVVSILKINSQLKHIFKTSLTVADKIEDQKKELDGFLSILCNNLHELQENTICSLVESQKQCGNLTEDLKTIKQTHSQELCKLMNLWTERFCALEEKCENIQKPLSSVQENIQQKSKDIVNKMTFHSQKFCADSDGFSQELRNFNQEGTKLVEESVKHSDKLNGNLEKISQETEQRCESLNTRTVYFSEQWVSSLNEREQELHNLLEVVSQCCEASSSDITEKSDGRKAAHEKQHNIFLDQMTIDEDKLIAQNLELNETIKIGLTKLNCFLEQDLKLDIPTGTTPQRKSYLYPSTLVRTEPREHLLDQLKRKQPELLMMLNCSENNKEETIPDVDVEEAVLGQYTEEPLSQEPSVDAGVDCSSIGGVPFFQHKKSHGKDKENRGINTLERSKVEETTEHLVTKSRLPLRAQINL

[2] = molecular target: T2, Kinesin-like protein KIF11 (Homo sapiens) (UniProt P52732); assay: Competitive inhibition of human Eg5 assessed as effect on ATPase activity using varying ATP levels in absence of microtubule by Lineweaver-Burke plot
T2 sequence (whole entry): T1 sequence (P52732 whole entry)

[3] = Inhibition of human KSP KHC-L5 mutant using varying ATP levels in presence of saturating levels of microtubule by Lineweaver-Burke plot
[4] = molecular target: T2, Kinesin-like protein KIF11 (Homo sapiens); assay: Competitive inhibition of human wild type Eg5 with respect to ATP using varying ATP levels in presence of saturating levels of microtubule by Lineweaver-Burke plot
Homo sapiens [5] = organism: Homo sapiens; assay: Competitive inhibition of human KSP KHC-L5 mutant with respect to ATP using varying ATP levels in presence of saturating levels of microtubule by Lineweaver-Burke plot
[6] = molecular target: T2, Kinesin-like protein KIF11 (Homo sapiens); assay: Uncompetitive inhibition of human wild type Eg5 with respect to microtubule using varying ATP levels in presence of saturating levels of microtubule by Lineweaver-Burke plot
[7] = tested on: T3, Kinesin-like protein KIF11 (Homo sapiens), P52732 [A133D]; assay: Uncompetitive inhibition of human KSP A133D mutant with respect to microtubule using varying ATP levels in presence of saturating levels of microtubule by Lineweaver-Burke plot
T3 sequence (whole entry): T1 sequence (P52732 whole entry) with A133D

Homo sapiens [8] = organism: Homo sapiens; assay: Uncompetitive inhibition of human KSP KHC-L5 mutant with respect to microtubule using varying ATP levels in presence of saturating levels of microtubule by Lineweaver-Burke plot

**Q.** With NC(=O)Nc1ccc(-c2ccc(C(F)(F)F)cc2)cc1F as the molecule, how does the Ki [1] read?
**A.** 8.8 nM

**Q.** What about the inhibition [2] of the same molecule?
**A.** inactive

**Q.** What about the Ki [3] of the same molecule?
**A.** 6 nM

**Q.** What about the inhibition [4] of the same molecule?
**A.** Active

**Q.** And the inhibition (Homo sapiens [5])?
**A.** Active

**Q.** What about the inhibition [6] of the same molecule?
**A.** Active

**Q.** What about the inhibition [7] of the same molecule?
**A.** Active

**Q.** What about the inhibition (Homo sapiens [8]) of the same molecule?
**A.** Active

**Q.** With O=C1CCc2cc(-c3ccc(C(F)(F)F)cc3)ccc2N1 as the molecule, how does the Ki [1] read?
**A.** 1.8 nM

**Q.** And the inhibition [2]?
**A.** inactive

**Q.** And the Ki [3]?
**A.** 2.1 nM

**Q.** And the inhibition [4]?
**A.** Active

**Q.** And the inhibition (Homo sapiens [5])?
**A.** Active

**Q.** What about the inhibition [6] of the same molecule?
**A.** Active

**Q.** What about the inhibition [7] of the same molecule?
**A.** Active

**Q.** What about the inhibition (Homo sapiens [8]) of the same molecule?
**A.** Active

From ChEMBL document CHEMBL1221208, “ATP-competitive inhibitors of the mitotic kinesin KSP that function via an allosteric mechanism” (Nat Chem Biol, 2007)
